Key:
p53 R175H = p53 R175H (Homo sapiens, UniProt P04637, R175H); conditions: cited from earlier work
[1] = molecular target: T1, R175H-p53 with A124 (cysteine 124 to alanine) (Homo sapiens, UniProt P04637, C124A/R175H); assay: PRIMA-1 treatment of Saos-2 cells expressing R175H-p53 with cysteine 124 changed to alanine; assay type: cell-based; conditions: 50 μM pre-heated PRIMA-1, 72 h, Saos-2 cells (FIG. 5)
T1 construct: expressed in transfected cells; host or cells: Saos-2 (p53null) human osteosarcoma cells
Description: (§1) FIG. 5 is a graph showing that PRIMA-1 acts through cysteine 124 in p53. p53null Saos-2 cells expressing wild type p53, or the indicated p53 mutants, were treated with 50 μM pre-heated PRIMA-1 (“+”, left bar) or the medium without PRIMA-1 (DMSO, “−”, right bar) for 72 h. The increase in cell number during 72 h of growth is shown. Standard deviations represent 4 independent samples (Wassman, et al., 2013).
Although the region around residue C124 is enriched for cancer rescue mutations, changes in position 124 have never been found, nor were they predicted by our SVM classifier, to reactivate p53 cancer mutants. Indeed, directed saturation mutagenesis of position 124 in the context of the R175H p53 cancer mutation explored all single amino acid changes at C124 and confirmed the absence of any genetic mutation rescue activity at this position. We could therefore test the computer predictions for a role of C124 in covalent drug binding in vivo by changing C124 into alanine to prevent the hypothetical thiol-mediated link with MQ.
(§2) The increase in cell number during 72 h of growth is shown. As expected, the p53 cancer mutant R175H was activated by PRIMA-1. Mutating cysteine 124 to alanine blocked PRIMA-1 induced cancer mutant reactivation.

p53 cancer mutant R175H = molecular target: T2, p53 cancer mutant R175H (Homo sapiens, UniProt P04637, R175H); assay: p53 reactivation assay (cell killing / proliferation arrest) in Saos-2 cells expressing p53 cancer mutant R175H; assay type: cell-based; conditions: 50 μM pre-heated PRIMA-1, 72 h, Saos-2 cells (FIG. 5)
T2 construct: expressed in transfected cells; host or cells: Saos-2 (p53null) human osteosarcoma cells
Description: as §1, §2
The basis for our primary assay is that cancer cells cannot tolerate active p53, stop proliferation, and eventually die. Expression of functional p53 in p53null Saos-2 osteosarcoma cells blocks their proliferation; expression of p53 cancer mutants has no effect (Wassman et al., 2013) (FIG. 5). Importantly, compounds that reactivate p53 cancer mutants specifically block proliferation of Saos-2 cells expressing p53 cancer mutants, but have no effect on growth of p53null cells at the same concentration (FIG. 3). […]
(§3) Our primary screen is the p53 cancer mutant R175H, which is the single most prevalent human cancer mutation. Active compounds were re-evaluated using an independent cell line expressing a different p53 cancer mutant, G245S.

[2] = tested on: parental Saos-2 (p53^null) cells; assay: Cell proliferation of parental Saos-2 (p53null) cells, CellTiter-Glo; assay type: cell-based; conditions: cultured 3 days, max. 200 μM, Zinc Leads Now compounds (FIG. 3A)
Description: FIG. 3A is a graph of reactivation activities of various compounds. Saos-2 cells expressing no p53 (p53^null), or expressing one of the cancer mutants p53-R175H or p53-G245S, were cultured for 3 days in the presence of different concentrations of compounds that had been selected from the Zinc Leads Now database, version of January, 2011, by the computational methods described below. The p53 reactivation compounds shown correspond to FIG. 1. Cell numbers were measured using the CellTiter-Glo® reagent. […] Data are presented as the standard error of the mean (n=3). Note that as of this writing eight compounds have been tested on the R175H mutant only (32CTM, 28NZ6, 27TGR, 27VFS, 35LWZ, 36EB5, 32LDE, and 32JCB).
FIG. 3B is a graph of reactivation activities of various compounds. Experimental conditions are as in FIG. 3A, but compounds were selected from the Chembridge Express Pick Library 2012 database, by the computational methods described below. The p53 reactivation compounds shown correspond to FIG. 2.
The basis for our primary assay is that cancer cells cannot tolerate active p53, stop proliferation, and eventually die. […]
as §3

p53 cancer mutants = assay: p53-dependent cell killing (or proliferation arrest) in Saos-2 cells expressing p53 cancer mutants; assay type: cell-based, human
Description: FIG. 3C is a graph of dose response curves for compounds 33BAZ and 27UDP using four different p53 cancer mutants: R175H, G245S, R248W, and R273H. Experimental conditions are as in FIG. 3A.
FIG. 3D is a panel of graphs of broad spectrum activity for four other compounds using four different p53 cancer mutants: R175H, G245S, R248W, and R273H. Experimental conditions are as in FIG. 3C, but a single dose was assayed: 27VFS (20 μM), 35LWZ (50 μM), 27WT9 (10 μM), and 26RQZ (10 μM).
Our previous p53 reactivation assays focused on p53-driven expression of the canonical p53 target genes p21 and PUMA (Wassman et al., 2013). However, there is significant evidence that neither p21 nor PUMA expression predict p53 anti-tumor activity (Hock & Vousden, 2012; Li et al., 2012; Valente et al., 2013). Indeed, our results comparing effects of PRIMA-1 and stictic acid support this view. […] We now use p21 and PUMA expression as an independent transcription assay for p53 cancer mutant reactivation, but not the primary selection criterion. We changed to p53-dependent cell killing (or proliferation arrest) as our main measure of efficacy because our long-term goal is anti-tumor drugs. […]
as §3

[3] = tested on: p53-dependent reporter expression (p21 and PUMA promoter elements); assay: p21 and PUMA expression / transcriptional reporter assay based on p21 and PUMA promoter elements; assay type: cell-based, human; conditions: comparison of stictic acid and PRIMA-1
Text: Our previous p53 reactivation assays focused on p53-driven expression of the canonical p53 target genes p21 and PUMA (Wassman et al., 2013). However, there is significant evidence that neither p21 nor PUMA expression predict p53 anti-tumor activity (Hock & Vousden, 2012; Li et al., 2012; Valente et al., 2013). Indeed, our results comparing effects of PRIMA-1 and stictic acid support this view. […] We now use p21 and PUMA expression as an independent transcription assay for p53 cancer mutant reactivation, but not the primary selection criterion. We changed to p53-dependent cell killing (or proliferation arrest) as our main measure of efficacy because our long-term goal is anti-tumor drugs.
An independent test for p53 cancer mutant reactivation is the well-established transcriptional reporter assay based on p21 and PUMA promoter elements (Wassman, et al., 2013). As above, the magnitude of reactivated p53-dependent transcription is not considered relevant for a compound's potency in cancer cell killing.

## CC(=NNC(=S)N(C)C)c1ccccn1 [NSC319725]
p53 R175H
  allele specificity of p53 mutant reactivation: R175H allele-specific

## C/C(=N\NC(=S)N1CCC1)c1ccccn1 [NSC319726]
p53 R175H
  allele specificity of p53 mutant reactivation: R175H allele-specific

## O=C1C2CCN(CC2)C1(CO)CO [PRIMA-1]
[1]
  PRIMA-1 effects after introduction of A124 in R175H-p53: completely eliminated
p53 cancer mutant R175H
  effect on cells expressing the inactive R175H p53: reactivation and induction of cell death
[2]
  highest compound concentration that did not significantly affect cell proliferation of the parental Saos-2 (p53null) cells: 50 µM
p53 cancer mutants; comparison of PRIMA-1 and stictic acid
  p53-dependent killing/arresting of cells: considerably more potent

## COc1cc(C)c2c(c1C=O)Oc1c(c(C)c(O)c3c1C(O)OC3=O)OC2=O (centres unmarked) [stictic acid]
[3]
  restoring p21 and PUMA expression in p53 cancer mutants: significantly better than PRIMA-1
p53 cancer mutants; one of 45 screened NCI DTP compounds
  p53 reactivation in biological assays: proved to be a p53 reactivation compound
